The structures appear in SMILES notation. Where “and” joins values, the source holds several entries; their conditions need not be identical. Equal values may be shown once.

This assay deals with T1, SMN (Homo sapiens, UniProt Q16637).
T1 construct: endogenous in cells; host or cells: U2OS
In words: AP-MS chemical proteomics, SMN. Format: binding. The protocol:
The samples for AP-MS were prepared following pulldown procedure as previously described with minor modifications. Briefly, U2OS cells were lysed in RIPA buffer and the cell lysate was equally divided into two groups: (1) DMSO group (control group): the cell lysate was incubated with 20 μM biotin-labeled compound 1; (2) Cpmd 1 group (sample group): the cell lysate was incubated with 20 μM biotin-labeled compound 1 and 200 μM free compound 1. Each group contains three biological replicates. They were incubated overnight at 4 °C, then 30 μL streptavidin beads (Thermo Fisher, 20353) was added and incubated at 4 °C for 1 h. The beads were then washed with RIPA buffer for 3 times, 10 min/time.
Beads were rinsed twice with 50 mM TEAB, pH 7.55, before eluting proteins with 25 μL of 5% SDS, 50 mM TEAB, pH 7.55. The sample was then centrifuged at 17,000 × g for 10 min to remove any debris. Proteins were reduced with 20 mM TCEP (Thermo Fisher, 77720) and incubated at 65 °C for 30 min. […]
Samples were analyzed by nanoLC-MS/MS (nanoRSLC, Thermo Fisher) using an Aurora series (Ion Opticks) reversed phase HPLC column (25 cm length × 75 µm inner diameter) and directly injected to an Orbitrap Eclipse (Thermo Fisher) using a 120 min gradient (mobile phase A = 0.1% formic acid, mobile phase B = 99.9% acetonitrile with 0.1% formic acid; hold 2% B for 5 min, 2–6% B in 0.1 min, 6–25% in 100 min, 25–50% in 15 min) at a flow rate of 350 nL/min. Eluted peptide ions were analyzed using a data-dependent acquisition (DDA) method with resolution settings of 120,000 and 15,000 (at m/z 200) for MS1 and MS2 scans, respectively. […]
The data of AP-MS were analyzed as a previously described method with minor modifications. […] Relative protein quantification was based on the label-free quantification incorporated in the MaxQuant software. […] The missing iBAQ intensity was replaced by a random number, which was calculated from a normal distribution with a width of 0.3 and a downshift of 1.8 defined by Perseus software (version 1.6.5.0). The P-value was calculated by performing two-sample Student’s t-test. […]

T1 sequence (Q16637 whole entry): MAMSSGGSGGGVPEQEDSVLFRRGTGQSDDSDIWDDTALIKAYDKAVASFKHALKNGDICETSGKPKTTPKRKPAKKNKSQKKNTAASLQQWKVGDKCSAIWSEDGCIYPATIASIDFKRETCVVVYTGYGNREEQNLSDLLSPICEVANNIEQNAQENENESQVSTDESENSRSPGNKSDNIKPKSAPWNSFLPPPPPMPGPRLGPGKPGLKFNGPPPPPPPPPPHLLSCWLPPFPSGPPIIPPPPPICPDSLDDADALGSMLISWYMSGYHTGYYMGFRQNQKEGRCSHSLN

Molecule `Cn1c2c(c(=N)c3c1CCC3)CCC2` [Compound 1, 4-methyl-2,3,4,5,6,7-hexahydrodicyclopenta[b,e]pyridin-8(1H)-imine] registered a Difference (GN=SMN1/SMN2 (Q16637), Cmpd minus DMSO, -LOG(P-value) 4.49648) of -8.914. Besides, the “iBAQ Cmpd” value (GN=SMN1/SMN2 (Q16637), replicates 1-3) is 15.271 and 13.8686 and 14.4098. In addition, the “log2 FC (Cmpd 1/DMSO), SMN” value (biotin-Cmpd 1 pulldown, competition with 200 μM compound 1 relative to DMSO, U2OS lysate) is −8.9.

The values are drawn from article PMC9481570, “A small molecule antagonist of SMN disrupts the interaction between SMN and RNAP II” (Nature Communications, 2022).
